Molecules are shown by their SMILES.

A short description of assay [1]: Displacement of [125I]NT from neurotensin receptor in human HT-29 cells. It counts as cell-based. In general terms: In a radioligand displacement assay an active substance lowers the binding of a labelled ligand.
The subject of the next assay is HT-29. The assay can be described thus: Antagonist activity at neurotensin receptor in human HT-29 cells assessed as effect on NT-induced intracellular Ca2+ increase by spectrofluorimetry. It counts as functional, cell-based.

Usually IC50 stands for the point on the concentration scale where inhibition reaches its midpoint. Turning to `CC[C@H](C)[C@@H]1NC(=O)[C@@H]2CCCN2C(=O)[C@H](CS)NC(=O)CNC(=O)[C@H](CCC(=O)O)NC(=O)[C@H](CO)NC(=O)[C@H](CS)NC(=O)[C@H](C(C)C)NC(=O)[C@H](Cc2ccccc2)NC(=O)[C@H]([C@@H](C)CC)NC(=O)[C@@H]2CCCN2C(=O)[C@H](CS)NC(=O)[C@H]([C@H](C)O)NC(=O)[C@H](C(C)C)NC(=O)[C@H]([C@H](C)O)NC(=O)[C@H](C)NC(=O)[C@H](CC(C)C)NC(=O)[C@H](CC(C)C)NC(=O)CNC(=O)[C@H](CS)NC(=O)[C@H](CO)NC(=O)[C@H](CS)NC(=O)[C@H](CCCCN)NC(=O)[C@H](CO)NC(=O)[C@H](CCCCN)NC(=O)[C@H](C(C)C)NC(=O)[C@H](CS)NC(=O)[C@H](Cc2ccc(O)cc2)NC(=O)[C@H](CCCCN)NC(=O)[C@H](CC(N)=O)NC(=O)[C@H](CO)NC1=O` [CYCLOPSYCHOTRIDE A], the IC50 in assay [1] came to 3000 nM. Also, the Activity result with HT-29 was “Dose-dependent effect”.

Source of the values: ChEMBL document CHEMBL1148091, “Cyclopsychotride A, a biologically active, 31-residue cyclic peptide isolated from Psychotria longipes” (J Nat Prod, 1994).
